In article PMC8686256, “DZNep promotes mouse bone defect healing via enhancing both osteogenesis and osteoclastogenesis” (Stem Cell Research & Therapy, 2021):

How the values were obtained:
Format in all cases: cell-based, mouse
NF-κB signaling pathway = assay: Western blotting and immunofluorescence of NF-κB signaling pathway
Procedure: To explore the variation of the proteins on long-term activated signaling, BMMs were cultured in α-MEM containing M-CSF (30 ng/ml) and RANKL (50 ng/ml) at a density of 2 × 10^5 cells/well on 6-well plates. After 24 h, the BMMs were treated with or without 25 nM DZNep for 0, 1, 3, and 5 days, and total protein was obtained, respectively, on these specific time points. To determine the effect of DZNep on the protein of short-time activated phosphorylated, RAW264.7 cells were cultured in α-MEM at a density of 5 × 10^5 cells/well on 6-well plates. One day later, the cells were treated with the serum-free α-MEM in the presence or absence of DZNEP for 3 hand then stimulated with 50 ng/mL RANKL for 0, 10, 20, 30, and 60 min. To determine the efficiency of EZH2 shRna, BMMs were cultured in α-MEM at a density of 5 × 10^5 cells/well on 6-well plates. One day later, the cells were treated with negative control shRNA or different EZH2 shRNA for 2 days. To determine the efficiency of Foxc1 siRna, BMMs were cultured in α-MEM at a density of 5 × 10^5 cells/well on 6-well plates. […] After TBST wash for 3 times, the secondary fluorescence antibodies were incubated without light for 1 h at room temperature and the reactivity was visualized by using Odyssey V3.0 image scanning (Li-COR. Inc., Lincoln, NE, USA). […]

primary BMSC = assay: Osteoblast differentiation and mineralization, ALP and Alizarin red staining
Procedure: Primary BMSC were obtained from the whole bone marrow of male 4-week-old C57BL/6 mice. In brief, cells were extracted from the tibiae and femurs bone marrow and suspended in α-MEM supple with 10% FBS, and 1% penicillin/streptomycin. Then, the cell cultures were kept in a humid environment at 37 °C with 5% CO2 until they reached 90% confluence. For further identifying the effect of DZNep on osteogenesis, bone marrow-derived mouse mesenchymal stem cells were firstly seeded into the 48-well plates for one day at a density of 5 × 10^4 cells/well. Then the medium was changed by low-glucose DMEM with 15% FBS, 5 mM β-glycerophosphate, 50 µg/mL ascorbic acid, 10-7 mM dexamethasone, and various concentrations of DZNep (0, 12.5, 25, 50, and 100 nM). The medium was changed twice a week. For EZH2 gene knockdown studies, the cells were transfected with virus constructed of different EZH2 short hairpin RNA (shRNA) and negative control shRNA by mixed with polybrene (final concentration of 10ug/ml) for 48 h. The transfection mixture was then replaced by complete α-MEM added with puromycin for 24 h, and BMSCs were then seeded into a 48-well plate at the density of 5 × 10^4 cells/well with complete α-MEM for 24 h. The culture medium was then replaced by low-glucose DMEM with 15% FBS, 5 mM β-glycerophosphate, 50 µg/mL ascorbic acid, 10-7 mM dexamethasone. The medium was changed twice a week. […]

[1] = test system: BMMs and calvarial OB co-culture; assay: Osteoblasts and osteoclasts co-cultivation, ALP staining; settings: 7 days
Procedure: For the osteoblasts and osteoclasts co-culture system, calvarial OB isolated from day 1–3 pups were cultured for 24 h. Then the calvarial OB with complete α-MEM (α-MEM supplemented with 10% FBS, 1% penicillin/streptomycin) were seeded into 24-well plates at a density of 2 × 10^4 cells/well. After 3 days of cultivation, the medium was replaced by the complete α-MEM containing […] ascorbic acid and 5 mM β-glycerophosphate. On the same day, bone marrow monocytes were isolated from bone marrow and cultured in 10-cm dish. Another 3 days later, BMMs were seeded at a density of 4 × 10^4 cells/well into the 24-well plate containing the calvarial OB, and the α-MEM supplemented with 15% FBS, 1% penicillin/streptomycin, 1, 25-dihydroxy vitamin D3 (10 nM; CSN), and PGE2 (1 μM; CSN). After changed every 3 days for 2 times of the culture medium, the cells were then fixed and stained to observe the percent of the positive ALP staining area using a kit according to the manufacturer’s instructions (Beyotime, Shanghai, China). The percent of area was then quantified using ImageJ.

SMILES: Nc1nccc2c1ncn2C1C=C(CO)C(O)C1O (centres unmarked) [DZNep, 3-Deazaneplanocin]
- NF-κB nuclear translocation (NF-κB signaling pathway; 25 nM pretreatment, then RANKL): enhancement of NF-κB nuclear translocation
- phosphorylation of IKK, IκB, and p65 (NF-κB signaling pathway; RAW264.7, 25 nM pretreatment, RANKL for specific times): further promoted over time
- osteoblast differentiation (ALP staining) (primary BMSC; 7 days, especially 50 nM): promoted
- osteoblast mineralization (Alizarin red staining) (primary BMSC; 28 days): enhanced in a dose-dependent manner
- osteogenesis in co-culture system (ALP) [1]: still preserves the effect of promoting osteogenesis
